From US20220047529A1, “METHODS OF INHIBITION” (University of Canberra, priority 2018, published 2022)

Tested on: form-deprivation myopia
Assay: Form-deprivation myopia (FDM) development in chicks with a translucent diffuser; axial length by A-scan ultrasonography
Details: four days; for axial length: diffuser-treated eye
[1] = daily intravitreal injection of 1.5 mM solution
[2] = daily intravitreal injection of 15 mM solution
[3] = daily intravitreal injection of 1.5 mM solution (10 μL), mean±SEM
[4] = daily intravitreal injection of 15 mM solution (10 μL), mean±SEM
[5] = twice daily topical administration of 1.5 mM solution, mean±SEM
[6] = twice daily topical eye drops of 15 mM solution, mean±SEM
[7] = twice daily topical eye drops of 15 mM solution

Procedure: 30 white male cockerel chickens were randomly assigned to one of six treatment groups as defined below (n=5 per group) and were treated for a four day period. • Chicks fitted with a translucent diffuser over their left eye to induce form-deprivation myopia (FDM); • Chicks fitted with a translucent diffuser over their left eye and daily intravitreal injection of a 1.5 mM (0.028%) dopamine solution prepared according to Example 1; • Chicks fitted with a translucent diffuser over their left eye and twice daily topical administration of a 1.5 mM (0.028%) dopamine solution prepared according to Example 1; • Chicks fitted with a translucent diffuser over their left eye and daily intravitreal injection of a 15 mM (0.28%) dopamine solution prepared according to Example 1; • Chicks fitted with a translucent diffuser over their left eye and twice daily topical administration of a 15 mM (0.28%) dopamine solution prepared according to Example 1; • Age-matched untreated control group.
For the drug treatments, the compositions were administered under light isoflurane anesthesia using intravitreal injection or topical administration.
Intravitreal injection was performed as follows: Using a 30 gauge needle attached to a Hamilton syringe, 10 μL (0.01 mL) of the test composition was injected into the vitreous chamber of the eye once daily.
Topical administration was performed as follows: Two drops of 40 μL (two drops of 0.04 mL, or 0.08 mL total) of the test composition was applied to the corneal surface of the eye using an eye drop dispenser. Drops were applied to the chicks twice daily.
To determine changes in the rate of eye growth and the development of myopia, changes in axial length was assessed. […] Axial length, anterior chamber depth and vitreal chamber depth were measured using A-scan ultrasonography (Biometer AL-100; Tomey Corporation, Nagoya, Japan). Statistical analysis of changes in axial length, anterior chamber depth and vitreal chamber depth between groups involved a one-way ANOVA test followed by a Student's T-test with Bonferroni correction. All data are presented as the mean±the standard deviation of the mean (SEM).

Structure (SMILES)	effect on excessive axial elongation associated with form-deprivation myopia (in words) (daily intravitreal injection of 0.25 mM atropine alone)	axial length (twice daily topical administration of 50 mM atropine solution alone)	protection relative to FDM-only [1]	protection relative to FDM-only [2]	axial length [3]	axial length [4]	axial length [5]	axial length [6]	protection relative to FDM-only [7]	effect on excessive axial elongation associated with form-deprivation myopia (in words) (daily intravitreal injection of 0.15 mM dopamine-1,1,2,2-d4 alone)	effect on excessive axial elongation associated with form-deprivation myopia (in words) (daily intravitreal injection of 17 mM pirenzepine alone)
CN1[C@@H]2CC[C@H]1C[C@@H](OC(=O)C(CO)c1ccccc1)C2 (stereo partly drawn) [atropine]	significantly inhibited	8.79±0.09 mm	–	–	–	–	–	–	–	–	–
NCCc1ccc(O)c(O)c1 [dopamine, 2-(3,4-dihydroxyphenyl)ethylamine]	–	–	78%	78%	8.82±0.02 mm	8.82±0.11 mm	8.97±0.08 mm	8.84±0.07 mm	72%	–	–
[2H]C([2H])(N)C([2H])([2H])c1ccc(O)c(O)c1 [dopamine-1,1,2,2-d4, 2-(3,4-dihydroxyphenyl)ethyl-1,1,2,2,d4-amine]	–	–	92%	103%	8.77±0.11 mm	8.72±0.06 mm	8.88±0.10 mm	8.85±0.14 mm	71%	significantly inhibited	–
CN1CCN(CC(=O)N2c3ccccc3C(=O)Nc3cccnc32)CC1 [pirenzepine]	–	–	–	–	–	–	–	–	–	–	significantly inhibited
